Where two headings read alike, the source gives them in different places.
Target: full length NS3/4a (Hepatitis C virus genotype 1b (isolate BK) (HCV), UniProt P26663)
Assay: NS3 Protease Assay (Example A), FRET-based
Type: biochemical
Method in brief: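 Full-length NS3/4a, made in-house, with an NS4A/B-derived peptide substrate carrying QXL520 quencher and 5-FAMsp fluorophore. Buffer 50 mM Tris pH8, 20 mM DTT, 1% CHAPS, 10% glycerol, 5% DMSO. Fluorescence followed 30 min at room temperature; IC50 from initial rates of replicate curves.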

[1] = HCV NS3 protease assay, full length NS3/4a, read-out: Assay A IC50 (μM) average
[2] = read-out: IC50 against the protease activity of the full length NS3/4a
[3] = stated as IC50 less than 30 μM or at least 40% inhibition at a concentration of 100 μM, read-out: IC50 against the protease activity of the full length NS3/4a

Sequence of full length NS3/4a (P26663 1027-1657): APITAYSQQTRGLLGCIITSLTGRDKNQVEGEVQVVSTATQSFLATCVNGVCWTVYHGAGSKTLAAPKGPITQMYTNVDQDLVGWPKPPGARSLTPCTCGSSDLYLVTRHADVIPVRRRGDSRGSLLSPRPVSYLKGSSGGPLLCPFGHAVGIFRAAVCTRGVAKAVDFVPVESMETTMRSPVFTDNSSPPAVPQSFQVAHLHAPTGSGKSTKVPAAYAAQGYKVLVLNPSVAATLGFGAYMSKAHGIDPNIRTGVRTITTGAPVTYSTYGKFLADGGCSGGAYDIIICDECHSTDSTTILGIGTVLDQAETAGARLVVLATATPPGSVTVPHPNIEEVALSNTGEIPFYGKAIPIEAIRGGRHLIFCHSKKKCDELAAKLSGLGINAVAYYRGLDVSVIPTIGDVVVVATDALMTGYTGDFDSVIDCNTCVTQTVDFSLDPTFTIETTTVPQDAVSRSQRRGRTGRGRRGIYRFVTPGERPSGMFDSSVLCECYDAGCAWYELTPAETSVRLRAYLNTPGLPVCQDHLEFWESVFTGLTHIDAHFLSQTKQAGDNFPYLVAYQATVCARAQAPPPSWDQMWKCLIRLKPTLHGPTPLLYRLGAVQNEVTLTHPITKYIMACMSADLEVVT

Structure (SMILES): COc1ccc([C@H](N[C@H](C)CC(N)=O)C2CC2)c(F)c1C(=O)c1cccc(F)c1 [Example 223, (3R)-3-{[(R)-cyclopropyl({2-fluoro-3-[(3-fluorophenyl)carbonyl]-4-methoxyphenyl})methyl]amino}butanamide]
- IC50 [1]: 3.1 µM
- IC50 [2]: 1 to 5 µM

Structure (SMILES): CC[C@H](CC(N)=O)N[C@H](CC)c1ccc(Cl)c(C(=O)c2ccc(N)nc2)c1F [Example 226, (3R)-3-{[(1R)-1-{3-[(6-aminopyridin-3-yl)carbonyl]-4-chloro-2-fluorophenyl}propyl]amino}pentanamide]
- IC50 [1]: 1.1 µM
- IC50 [2]: 1 to 5 µM

Structure (SMILES): CC[C@@H](N[C@H](C)CC(N)=O)c1ccc(Cl)c(C(=O)c2cccc(O)c2)c1F [Example 228, (3R)-3-{[(1R)-1-{4-chloro-2-fluoro-3-[(3-hydroxyphenyl)carbonyl]phenyl}propyl]amino}butanamide]
- IC50 [1]: 0.73 µM
- IC50 [2]: < 1 µM

Structure (SMILES): CC[C@@H](N[C@H](C)CC(N)=O)c1ccc(Cl)c(C(=O)c2ccc(O)cc2)c1F [Example 231, (3R)-3-{[(1R)-1-{4-chloro-2-fluoro-3-[(4-hydroxyphenyl)carbonyl]phenyl}propyl]amino}butanamide]
- IC50 [1]: 2.1 µM
- IC50 [2]: 1 to 5 µM

Structure (SMILES): CC[C@@H](N[C@H](C)CC(N)=O)c1ccc(Cl)c(C(=O)c2ccc(N)nn2)c1F [Example 233, (3R)-3-{[(1R)-1-{3-[(6-aminopyridazin-3-yl)carbonyl]-4-chloro-2-fluorophenyl}propyl]amino}butanamide]
- inhibition at 10 µM (@ 10 uM): 40%
- IC50 [3]: < 30 µM

Structure (SMILES): CC[C@@H](N[C@H](C)CC(N)=O)c1ccc(Cl)c(C(=O)c2ccc(C#N)c(OC)c2)c1F [Example 236, (3R)-3-{[(1R)-1-{4-chloro-3-[(4-cyano-3-methoxyphenyl)carbonyl]-2-fluorophenyl}propyl]amino}butanamide]
- inhibition at 1 µM (@ 1 uM): 56%
- IC50 [3]: < 30 µM

Structure (SMILES): CC[C@@H](N[C@@H](C)CC(=O)NCCN)c1ccc(Cl)c(C(=O)c2ccc(N)nc2)c1F [Example 240, (3S)-N-(2-aminoethyl)-3-{[(1 R)-1-{3-[(6-aminopyridin-3-yl)carbonyl]-4-chloro-2-fluorophenyl}propyl]amino}-butanamide]
- inhibition at 0.03 µM (@ 0.03 uM): 48%
- IC50 [3]: < 30 µM

Structure (SMILES): CC[C@@H](N[C@H](C)CC(=O)NCCN)c1ccc(Cl)c(C(=O)c2ccc(N)nc2)c1F [Example 241, (3R)-N-(2-aminoethyl)-3-{[(1R)-1-{3-[(6-aminopyridin-3-yl)carbonyl]-4-chloro-2-fluorophenyl}propyl]amino}-butanamide]
- IC50 [1]: 0.036 µM

Structure (SMILES): CC[C@@H](N[C@H](C)CC(=O)NCCO)c1ccc(Cl)c(C(=O)c2ccc(N)nc2)c1F [Example 243, (3R)-3-{[(1R)-1-{3-[(6-aminopyridin-3-yl)carbonyl]-4-chloro-2-fluorophenyl}propyl]amino}-N-(2-hydroxyethyl)butanamide]
- IC50 [1]: 0.43 µM

Structure (SMILES): CC[C@@H](N[C@H](C)CC(N)=O)c1ccc(Cl)c(C(=O)c2ccc(N)c(Cl)c2)c1F [Example 244, (3R)-3-{[(1R)-1-{3-[(4-amino-3-chlorophenyl)carbonyl]-4-chloro-2-fluorophenyl}propyl]amino} butanamide]
- IC50 [1]: 0.38 µM

Structure (SMILES): C[C@H](CC(N)=O)N[C@@H](c1ccc(Cl)c(C(=O)c2ccc(C#N)cn2)c1F)C1CC1 [Example 245, (3R)-3-{[(R)-{4-chloro-3-[(5-cyanopyridin-2-yl)carbonyl]-2-fluorophenyl}(cyclopropyl)methyl]amino}butanamide]
- IC50 [1]: 3.4 µM
- IC50 [2]: 1 to 5 µM

Structure (SMILES): CC[C@@H](N[C@H](C)CC(N)=O)c1ccc(Cl)c(C(=O)c2cc(C)c(N)cn2)c1F [Example 246, (3R)-3-{[(1R)-1-{3-[(5-amino-4-methylpyridin-2-yl)carbonyl]-4-chloro-2-fluorophenyl}propyl]amino} butanamide]
- IC50 [1]: 3.9 µM
- IC50 [2]: 1 to 5 µM

Structure (SMILES): CC[C@@H](N[C@H](C)CC(N)=O)c1ccc(Cl)c(C(=O)c2ccc3c(c2)OCC(=O)N3)c1F [Example 248, (3R)-3-{[(1R)-1-{4-chloro-2-fluoro-3-[(3-oxo-3,4-dihydro-2H-1,4-benzoxazin-7-I)carbonyl]phenyl}propyl]amino}butanamide]
- IC50 [1]: 2 µM
- IC50 [2]: 1 to 5 µM

Structure (SMILES): CC[C@@H](N[C@H](C)CC(N)=O)c1ccc(OC)c(C(=O)c2ccc(N)nc2)c1F [Example 253, (3R)-3-{[(1R)-1-{3-[(6-aminopyridin-3-yl)carbonyl]-2-fluoro-4-methoxyphenyl}propyl]amino}butanamide]
- IC50 [1]: 1.4 µM
- IC50 [2]: 1 to 5 µM

Structure (SMILES): C[C@H](CC(N)=O)N[C@@H](c1ccc(Cl)c(C(=O)c2ccc(N)cn2)c1F)C1CC1 [Example 254, (3R)-3-{[(R)-{3-[(5-aminopyridin-2-yl)carbonyl]-4-chloro-2-fluorophenyl}(cyclopropyl)methyl]amino}butanamide]
- IC50 [1]: 1.8 µM
- IC50 [2]: 1 to 5 µM

Structure (SMILES): C=CC[C@@H](N[C@H](C)CC(N)=O)c1ccc(Cl)c(C(=O)c2ccc(N)nc2)c1F [Example 257, (3R)-3-{[(1R)-1-{3-[(6-aminopyridin-3-yl)carbonyl]-4-chloro-2-fluorophenyl}but-3-en-1-yl]amino}butanamide]
- IC50 [1]: 2 µM
- IC50 [2]: 1 to 5 µM

Structure (SMILES): CC[C@@H](N[C@H](C)CC(N)=O)c1ccc(Cl)c(C(=O)c2ccc(N)c(C)c2)c1F [Example 260, (3R)-3-{[(1R)-1-{3-[(4-amino-3-methylphenyl)carbonyl]-4-chloro-2-fluorophenyl}propyl]amino}butanamide]
- inhibition at 0.3 µM (@ 0.3 uM): 39%

Structure (SMILES): C[C@H](CC(N)=O)N[C@@H](c1ccc(Cl)c(C(=O)c2ccc(CO)cc2)c1F)C1CC1 [Example 264, (3R)-3-{[(R)-(4-chloro-2-fluoro-3-{[4-(hydroxymethyl)phenyl]carbonyl}phenyl)(cyclopropyl)methyl]amino}butanamide]
- IC50 [1]: 0.61 µM

Structure (SMILES): CC[C@@H](N[C@H](C)CC(N)=O)c1ccc(Cl)c(C(=O)c2ccc(N)nc2)c1F [Example 266, (3R)-3-{[(1R)-1-{3-[(6-aminopyridin-3-yl)carbonyl]-4-chloro-2-fluorophenyl}(2,2,3,3,3-deutero)propyl]amino}butanamide]
- IC50 [1]: 1.1 µM
- IC50 [2]: 1 to 5 µM

Structure (SMILES): C[C@H](CC(N)=O)N[C@@H](c1ccc(Cl)c(C(=O)c2ccc3c(c2)OCC(=O)N3)c1F)C1CC1 [Example 271, (3R)-3-{[(R)-{4-chloro-2-fluoro-3-[(3-oxo-3,4-dihydro-2H-1,4-benzoxazin-7-yl)carbonyl]phenyl}(cyclopropyl)methyl]-amino}butanamide]
- IC50 [1]: 1.1 µM
- IC50 [2]: 1 to 5 µM

Structure (SMILES): CC(C)C[C@@H](N[C@H](C)CC(N)=O)c1ccc(Cl)c(C(=O)c2ccc(N)nc2)c1F [Example 272, (3R)-3-{[(1R)-1-{3-[(6-aminopyridin-3-yl)carbonyl]-4-chloro-2-fluorophenyl}-3-methylbutyl]amino} butanamide]
- inhibition at 3 µM (@ 3 uM): 43%
- IC50 [3]: < 30 µM

Structure (SMILES): CC[C@@H](N[C@H](C)CC(N)=O)c1ccc(OC)c(C(=O)c2ccc(N)c(C)c2)c1F [Example 274, (3R)-3-{[(1R)-1-{3-[(4-amino-3-methylphenyl)carbonyl]-2-fluoro-4-methoxyphenyl}propyl]amino}butanamide]
- IC50 [1]: 0.56 µM

Structure (SMILES): CC[C@@H](N[C@H](C)CC(N)=O)c1ccc(OC)c(C(=O)c2cccc(C#N)c2)c1F [Example 277, (3R)-3-{[(1R)-1-{3-[(3-cyanophenyl)carbonyl]-2-fluoro-4-methoxyphenyl}propyl]amino}butanamide]
- IC50 [1]: 0.73 µM

Reference: patent publication US9145354B2, “Pharmaceutical compounds” (priority 2011, dated 2015)
